Read-outs that look alike come from different tables or passages of the source.
What was measured:
[1] = Cytotoxicity screening at 10 µM (MTT); format: cell-based, Cercopithecus aethiops; details: Cercopithecus aethiops, Vero cells, read-out: Cell line (viability %) Vero
[2] = tested on: Encephalomyocarditis virus (EMCV); test: Antiviral screening at 10 µM; format: cell-based; details: Cardiovirus A, EMCV-infected cells, read-out: Cell line (viability %) EMCV
Procedure: (§1) Antiviral properties of compounds 1a, 1c, 1a[PF6], 1c[PF6], 9b[PF6], 9c[PF6], 10a–10d, 2a, and 2b were assessed against five viruses: Human herpesvirus 1 (HSV-1, VR-539), Human parainfluenza virus type 3 (HPIV-3, VR-93), Human adenovirus 5 (AdV5, VR-5), Human herpesvirus 5 (HCMV, VR-977), and Encephalomyocarditis virus (EMCV, VR-1479). Viruses were purchased from the American Type Culture Collection (ATCC, Manassas, VA, USA).
(§2) All tested compounds were dissolved in DMSO (dimethyl sulfoxide, Sigma-Aldrich, Darmstadt, Germany) and then suspended in Minimum Essential Medium (MEM; Sigma-Aldrich, Darmstadt, Germany) supplemented with 2% heat-inactivated fetal bovine serum (FBS; Sigma-Aldrich, Darmstadt, Germany), 2 mM L-glutamine (Sigma-Aldrich, Darmstadt, Germany), and 100 units/mL penicillin G with […] streptomycin (Sigma-Aldrich, Darmstadt, Germany).
(§3) Vero, LLC-MK2, NCTC clone 929, MRC-5, and HeLa cells were propagated in Minimum Essential Medium (MEM; Sigma-Aldrich, Darmstadt, Germany) supplemented with 10% heat-inactivated fetal bovine serum (FBS; Sigma-Aldrich, Darmstadt, Germany) and 100 units/mL penicillin G with […] streptomycin (Sigma-Aldrich, Darmstadt, Germany). Upon reaching 80–90% confluency, cells were harvested with 0.25% trypsin in 1 mM EDTA (Life Technologies, Warsaw, Poland) and seeded onto 96-well microplates at 2 × 10^5 cells/mL. After overnight incubation of cells at 37 °C in a humidified atmosphere containing 5% CO2, the culture medium was removed, and cells were inoculated with the respective virus solution in MEM supplemented with 2% FBS and antibiotics (HSV-1 MOI 0.005, 1000 virions/mL; HPIV-3 MOI 0.01, 2000 virions/mL; AdV5 MOI 0.005, 1000 virions/mL, EMCV MOI 0.005, 1000 virions/mL, HCMV 20 PFU (plaque forming units) per well). After a 1-h (HSV-1, HPIV-3, AdV5, and EMCV) or 2-h adsorption period (HCMV), the residual virus was removed, and the infected cells were further incubated with a 100 μL freshly prepared solution of tested compounds diluted with a maintenance medium supplemented with 2% FBS to obtain compound concentrations of 10 µM. The final concentration of DMSO in the medium was 0.1%. All experiments were carried out in triplicate. The cells monolayers were incubated with the compounds at 37 °C in a humidified atmosphere containing 5% CO2 until the typical cytopathic effect (CPE) was visible. Viral infection was evaluated by the MTT assay or plaque reduction assay (HCMV). After incubation with drugs, the cells were treated with 3-(4,5-dimethylthiazol-2-yl)-2,5-diphenyltetrazolium bromide dye solution (MTT, Sigma-Aldrich, Darmstadt, Germany) (25 μL, 5 mg/mL) for 2 h and lysed with solvent solution (100 μL) containing: DMF (Sigma-Aldrich, Darmstadt, Germany) (45 mL), SDS (Sigma-Aldrich, Darmstadt, Germany) (13.5 g), and distilled water (55 mL). After overnight incubation at 37 °C, the optical density at 550 nm and a reference wavelength of 670 nm were measured on a microplate spectrophotometer, Varioskan Lux (Thermo Fisher Scientific, Waltham, MA, USA). The number of HCMV plaques was counted under an inverted microscope Olympus IX73 (Olympus, Tokyo, Japan).

[3] = tested on: Human parainfluenza virus type 3 (HPIV-3); test: Antiviral screening at 10 µM; format: cell-based; details: Human respirovirus 3, antiviral screening, HPIV-3-infected cells, read-out: Cell line (viability %) HPIV-3
Procedure: as §1, §2, §3

[4] = tested on: Human adenovirus 5 (AdV5); test: Antiviral screening at 10 µM; format: cell-based; details: Human mastadenovirus C, AdV5-infected cells, read-out: Cell line (viability %) AdV5
Procedure: as §1, §2, §3

[5] = tested on: Human herpesvirus 1 (HSV-1); test: Antiviral screening at 10 µM; format: cell-based; details: Human alphaherpesvirus 1, antiviral screening, HSV-1-infected cells, read-out: Cell line (viability %) HSV-1
Procedure: as §1, §2, §3

[6] = Cytotoxicity MTT assay (0.1–1000 µM), CC50; format: cell-based, Macaca mulatta; details: Macaca mulatta, LLC-MK2 cells, LLC-MK2, MTT, 48 h; read-out: CC50 Normal Cell Lines LLC-MK2
LLC-MK2 cells [7] = test: Cytotoxicity MTT assay (0.1–1000 µM), CC50; format: cell-based, Macaca mulatta
[8] = Cytotoxicity screening at 10 µM (MTT); format: cell-based, Human; details: human, HeLa cells, read-out: Cell line (viability %) HeLa
[9] = Cytotoxicity screening at 10 µM (MTT); format: cell-based, Mus musculus; details: Mus musculus, NCTC clone 929 cells, read-out: Cell line (viability %) NCTC clone 929
[10] = tested on: Human parainfluenza virus type 3 (HPIV-3); test: Antiviral activity assay (0.1–1000 µM), IC50; format: cell-based
Procedure: as §1, with “1e–1g, 1e[PF6], 8a–8d,” for “1a, 1c, 1a[PF6], 1c[PF6], 9b[PF6], 9c[PF6], 10a–10d, 2a,”, “9a” for “2b”
as §2
(§4) Investigated cells were propagated in Minimum Essential Medium (MEM; Sigma-Aldrich, Darmstadt, Germany) supplemented with 10% heat-inactivated fetal bovine serum (FBS; Sigma-Aldrich, Darmstadt, Germany) and 100 units/mL penicillin G with […] streptomycin (Sigma-Aldrich, Darmstadt, Germany). After reaching 80–90% confluency, cells were harvested with trypsin (Life Technologies, Warsaw, Poland) and seeded into 96-well microplates at 2 × 10^5 cells/mL after overnight incubation of cells at 37 °C in a humidified atmosphere containing 5% CO2.
(§5) The culture medium was removed from confluent cells grown in 96-well microplates, and the cells were inoculated with virus solutions in MEM supplemented with 2% FBS and antibiotics (HSV-1 MOI 0.005, 1000 virions/mL; HPIV-3 MOI 0.01, 2000 virions/mL; AdV5 MOI 0.005, 1000 virions/mL; EMCV 0.005, 1000 virions/mL; HCMV 20 PFU/well (plaque-forming units per well). After a 1-h (HSV-1, HPIV-3, AdV5, and EMCV) or 2-h adsorption period (HCMV), residual viral particles were removed, and infected cells were further incubated with MEM supplemented with 2% FBS containing compound concentrations in the range from 0.1 to 1000 µM [38]. All experiments were carried out in triplicate. The cell monolayers were incubated with the investigated compounds at 37 °C in a humidified atmosphere containing 5% CO2 until a cytopathic effect (CPE) was visible. Viral infection was evaluated by the MTT assay (as described previously) or plaque reduction assay. HCMV plaques were counted under an inverted microscope, Olympus IX73 (Olympus, Tokyo, Japan). Antiviral activity was expressed as the concentration required to reduce the number of viral plaques to 50% of the control (virus-infected but untreated).

LLC-MK2 cells [11] = test: Cytotoxicity screening at 10 µM (MTT); format: cell-based, Macaca mulatta; details: 48 h
[12] = Cytotoxicity screening at 10 µM (MTT); format: cell-based, Human; details: human, MRC-5 cells, read-out: Cell line (viability %) MRC-5
[13] = Cytotoxicity MTT assay (0.1–1000 µM), CC50; format: cell-based, Human; details: human, A549 cells, read-out: CC50 Cancer Cell Lines A549
MRC-5 cells = test: Cytotoxicity MTT assay (0.1–1000 µM), CC50; format: cell-based, Human; details: MRC-5, MTT, 48 h; read-out: CC50 Normal Cell Lines MRC-5
[14] = Cytotoxicity MTT assay (0.1–1000 µM), CC50; format: cell-based, Mus musculus; details: Mus musculus, NCTC clone 929 cells, NCTC clone 929, MTT, 48 h; read-out: CC50 Normal Cell Lines NCTC Clone 929
Vero cells = test: Cytotoxicity MTT assay (0.1–1000 µM), CC50; format: cell-based, Cercopithecus aethiops; details: 48 h
[15] = tested on: Human herpesvirus 5 (HCMV); test: Antiviral activity assay (0.1–1000 µM), IC50, plaque reduction; format: cell-based; details: Human betaherpesvirus 5, 20 PFU/well
Procedure: as §1, with “1e–1g, 1e[PF6], 8a–8d,” for “1a, 1c, 1a[PF6], 1c[PF6], 9b[PF6], 9c[PF6], 10a–10d, 2a,”, “9a” for “2b”
as §2, §4, §5

[16] = tested on: Encephalomyocarditis virus (EMCV); test: Antiviral activity assay (0.1–1000 µM), IC50; format: cell-based; details: Cardiovirus A, MOI 0.005, read-out: IC50 EMCV
Procedure: as §1, with “1e–1g, 1e[PF6], 8a–8d,” for “1a, 1c, 1a[PF6], 1c[PF6], 9b[PF6], 9c[PF6], 10a–10d, 2a,”, “9a” for “2b”
as §2, §4, §5

[17] = tested on: Human adenovirus 5 (AdV5); test: Antiviral activity assay (0.1–1000 µM), IC50; format: cell-based; details: Human mastadenovirus C; AdV5, MOI 0.005; read-out: IC50 AdV5
Procedure: as §1, with “1e–1g, 1e[PF6], 8a–8d,” for “1a, 1c, 1a[PF6], 1c[PF6], 9b[PF6], 9c[PF6], 10a–10d, 2a,”, “9a” for “2b”
as §2, §4, §5

[18] = tested on: Human herpesvirus 1 (HSV-1); test: Antiviral activity assay (0.1–1000 µM), IC50; format: cell-based; details: Human alphaherpesvirus 1; HSV-1, MOI 0.005
Procedure: as §1, with “1e–1g, 1e[PF6], 8a–8d,” for “1a, 1c, 1a[PF6], 1c[PF6], 9b[PF6], 9c[PF6], 10a–10d, 2a,”, “9a” for “2b”
as §2, §4, §5

[19] = Cytotoxicity MTT assay (0.1–1000 µM), CC50; format: cell-based, Human; details: human, HepG2 cells, read-out: CC50 Cancer Cell Lines HepG2
HeLa cells = test: Cytotoxicity MTT assay (0.1–1000 µM), CC50; format: cell-based, Human; details: MTT, 48 h, read-out: CC50 Cancer Cell Lines HeLa
[20] = Cytotoxicity MTT assay (0.1–1000 µM), CC50; format: cell-based, Human; details: human, MRC-5 cells, MRC-5, MTT, read-out: CC50 Normal Cell Lines MRC-5
[21] = Cytotoxicity MTT assay (0.1–1000 µM), CC50; format: cell-based, Cercopithecus aethiops; details: Cercopithecus aethiops, Vero cells, read-out: CC50 Normal Cell Lines Vero
[22] = Cytotoxicity MTT assay (0.1–1000 µM), CC50; format: cell-based, Human; details: human, HeLa cells, MTT, 48 h, read-out: CC50 Cancer Cell Lines HeLa
[23] = Human respirovirus 3, HPIV-3, MOI 0.01, read-out: IC50 HPIV-3

IC50 [15] [µM]	IC50 [16] [µM]	IC50 [10, 23] [M]	IC50 [17] [µM]	IC50 [18] [µM]	melting point [°C]	Compound	CC50 at 48 h [6] [µM]	CC50 at 48 h [13] [µM]	CC50 at 48 h [14] [µM]	CC50 at 48 h [19] [µM]	also measured
–	–	–	–	–	–	COc1cccc(Cn2c[n+](Cc3ccccc3)c(C)c2C)c1 [Compound 1c, lepidiline C, reference compound]	< 80	–	–	–	viability at 48 h, 10 µM [1]: 90.7%; viability at 10 µM [2]: 7.7%; viability at 10 µM [3]: 90.4%; viability at 10 µM [4]: 17.9%; viability at 10 µM [5]: 18.6%; CC50 (LLC-MK2 cells [7]; Table S2, range 0.1-1000 µM, LLC-MK2, read-out: Cell line (CC50 M) LLC-MK2): 28.3 ± 5.86 µM; viability at 48 h, 10 µM [8]: 8.9%; viability at 48 h, 10 µM [9]: 8.8%; IC50 ([10]; Table S4, range 0.1-1000 µM, HPIV-3, read-out: IC50 (M) HPIV-3): > 2.83e-05 M; Cell line (viability %) LLC-MK2 (LLC-MK2 cells [11]): 78.4%; viability at 48 h, 10 µM [12]: 76.7%
> 52.7	> 79.2	> 5.35e-05	> 0.039	> 22.7	190 to 192	Cc1c(C)[n+](Cc2cccc(F)c2)cn1Cc1ccccc1.[Cl-] [Compound 1e, 1-Benzyl-3-(3-fluorobenzyl)-4,5-dimethylimidazolium chloride]	–	37.7 ± 3.79	79.2 ± 1.44	423 ± 7.64	CC50 (LLC-MK2 cells [7]; LLC-MK2, MTT, 48 h, read-out: CC50 Normal Cell Lines LLC-MK2): 53.5 ± 2.18 µM; CC50 (MRC-5 cells): 52.7 ± 0.577 µM; CC50 (Vero cells; read-out: CC50 Normal Cell Lines Vero): 22.7 ± 1.53 µM; CC50 (HeLa cells): 0.039 ± 0.001 µM
> 54.3	> 30	> 6.62e-05	> 0.053	> 0.107	120 to 122	Cc1c(C)[n+](Cc2cccc(C(F)(F)F)c2)cn1Cc1ccccc1.[Cl-] [Compound 1g, 1-Benzyl-4,5-dimethyl-3-[3-(trifluoromethyl)benzyl]imidazolium chloride]	66.2 ± 2.25	10.3 ± 1.04	30 ± 2	130 ± 5	CC50 at 48 h [20]: 54.3 ± 1.16 µM; CC50 Normal Cell Lines Vero (Vero cells): toxic; CC50 at 48 h [21]: 0.107 ± 0.012 µM; CC50 at 48 h [22]: 0.053 ± 0.006 µM
